# Earlier results in article PMC4481117 (Molecular Pain, 2015).
# Experiments:
# Details in all cases: cited from earlier work
# macrophages = system: macrophages
# Text: (§1) Apart from their effects on κ-opioid receptors on neurons, Dyn A exerts numerous effects on leukocytes, particularly myeloid cells. […] In addition, Dyn A (residues 1–13) and Dyn A (residues 1–9) stimulate ...
# macrophage = system: macrophage
# Text: as §1
# rat mast cells = system: rat mast cells
# Text: as §1
# [1] = system: μ- and δ-opioid receptors; design: method as in PMID 8624732
smiles,measurement,setting,value
CC[C@H](C)[C@H](NC(=O)[C@H](CCCNC(=N)N)NC(=O)[C@H](CCCNC(=N)N)NC(=O)[C@H](CC(C)C)NC(=O)[C@H](Cc1ccccc1)NC(=O)CNC(=O)CNC(=O)[C@@H](N)Cc1ccc(O)cc1)C(=O)N[C@@H](CCCNC(=N)N)C(=O)N1CCC[C@H]1C(=O)N[C@@H](CCCCN)C(=O)N[C@@H](CC(C)C)C(=O)N[C@@H](CCCCN)C(=O)N[C@@H](Cc1c[nH]c2ccccc12)C(=O)N[C@@H](CC(=O)O)C(=O)N[C@@H](CC(N)=O)C(=O)N[C@@H](CCC(N)=O)C(=O)O [Dyn A],Secretion of IL-1 and TNFα,macrophages,increase secretion of IL-1 and TNFα by macrophages
same,Superoxide generation,macrophage,stimulate macrophage superoxide generation
same,Zymosan-triggered oxidative burst,macrophage,enhance macrophage zymosan-triggered oxidative burst
same,Nitric oxide release,macrophage; induced by LPS and IFN-γ,decrease nitric oxide release induced by LPS and IFN-γ
same,Degranulation and histamine release,rat mast cells,induce degranulation and histamine release from rat mast cells
same,μ- and δ-opioid receptor binding,[1],can bind to μ- and δ-opioid receptors
